Four compounds from US20140294763A1, “PEPTIDOMIMETIC PROTEASE INHIBITORS” (priority 2000, published 2014) can be followed below.

“And” between values parts separate entries of the source, which are not always exact repeats. Identical values can stand only once. Like-named read-outs stand apart in the source and are kept apart here. Where only a bound is given, the exact number is not on record here.

Data set [1] has as its system HCV subgenomic RNA replicon in Huh7 cells. Briefly: HCV subgenomic RNA replicon assay (Replicon Assay), TaqMan RT-PCR of replicon RNA after 48 h treatment. The class given is cell-based, hepatitis C virus (HCV). To be noted: for Inhibition of replicon RNA accumulation: 48 hour treatment. The source says:
The Replicon Assay measures the amount of HCV subgenomic RNA (replicon RNA) remaining in replicon cells (Lohman et al. Science 285:110-113 (1999)) after two days of drug treatment relative to the amount of replicon RNA in untreated cells. In this assay, the potency of compounds as HCV antiviral drugs is directly proportional to the level of inhibition of replicon RNA accumulation.
The Replicon Assay employing a cell line containing the self-replicating HCV subgenomic RNA (replicon) is described in Lohmann et al. Science 285:110-113 (1999). The Genbank accession number for the sequence of the replicon used in the experiments described herein is listed in this reference as AJ242654. This paper discloses methods for in vitro transcription of RNA from the replicon cDNA, transfection of the replicon RNA into Huh7 cells by electroporation, and selection of cells containing the replicon RNA using the antibiotic G418. Huh7 cells are a hepatoma cell line obtained from Dr. William Mason at Fox Chase Cancer Research Center (Philadelphia). These cells are publicly available from Fox Chase, and have been extensively described in the scientific literature (Nakabayashi at al. Cancer Res. 42:3858-3863 (1982)). In the experiments described herein, all of the template DNA is removed from the in vitro transcribed replicon RNA preparation prior to electroporation of this RNA into Huh7 cells by multiple treatment with DNase (three sequential treatments).
The Replicon Assay is performed as described in detail below. Briefly, Replicon cells are placed in 96 well trays at a density of 10,000 cells per well and incubated 37° C. The cells are incubated in DMEM ([…]) supplemented with 10% fetal bovine serum, glutamine, nonessential amino acids, and the antibiotic G418 (0.25 mg/ml). […] Each compound is tested at six to eight different concentrations. […] Each HCV serine protease inhibitor concentration is tested without any added interferon, as well as with the addition of six to eight different interferon doses. Similarly, interferon is tested without any added HCV serine protease inhibitor. After a 48-hour incubation with the compounds, the medium is removed from the plates, and total cellular RNA is extracted from the cells using the RNeasy-96 kit manufactured by Qiagen Inc. (Valencia, Calif.). This RNA is then analyzed by quantitative RT-PCR, or TaqMan® (Applied Biosystems, Foster City Calif.). The TaqMan® RT-PCR target is the neomycin resistance gene in the replicon RNA. The plates are configured so that there are 5 replicates of each drug treatment sample, and 16 replicates of the untreated samples. This permits greater statistical confidence in the quantitative RT-PCR data.
Analysis of the Replicon Assay data yields two values that are useful in assessing the potency of potential HCV antiviral agents. At each compound concentration tested, the level of inhibition in replicon RNA accumulation caused by the compound during two days of treatment relative to the amount of replicon RNA in untreated cells is determined. This is reported as percent inhibition. […] The IC50 is the value used to rank individual compounds tested in this assay based on their potency as HCV antiviral agents. Simple IC50 determinations are inadequate to assess the utility of compounds used in combination.
The Replicon Assay is used to measure the capacity of potential HCV antiviral compounds to inhibit the accumulation of a HCV subgenomic RNA replicon molecule in a Huh7 cell line (Lohmann et al. Replication of Subgenomic Hepatitis C Virus RNAs in a Hepatoma Cell Line. Science 285, 110-113 (1999)).
(In general: A replicon is a self-replicating genome or part of one, used to study replication in cells.)

Data set [2] can be described thus: XTT metabolic assay to determine replicon cell viability. To be noted: human. The source says: (§1) Inflamation Research. […] It is assumed that the level of GAPDH mRNA, which is a constitutively expressed housekeeping gene, is the same in all viable cells. […] Thus, it is postulated, as done by others using TaqMan® technology to determine the levels of particular mRNAs in human cells, that GAPDH mRNA levels are proportional to viable cell numbers (VCN) in any given sample, with the relationship of VCN=2^̂(40−CtGAPDH mRNA). The VCN is computed for each of the Replicon Assay sample wells, and then we divide the HCV Replicon RNA copy number for a specific well by the VCN for that well. Once computed, this ratio is used instead of the HCV copy number to compute inhibition (“Avg. Inh using ratio”; FIG. 14A). […] In the Replicon Assay, it is assumed that the measured inhibition of HCV RNA replicon accumulation is the sum of the actual inhibition of HCV RNA replicon accumulation and the apparent inhibition of HCV RNA replicon accumulation due to cytoxicity. […] Thus, the true anti-HCV activity of a compound in the Replicon Assay corrected for general cytotoxicity can be estimated by dividing the number of HCV replicon RNA molecules measured in each sample by the VCN, thus normalizing to the number of viable cells in each sample. […] In FIG. 14A, “Avg.

Data set [3] concerns replicon cells (glyceraldehyde-3-phosphate dehydrogenase (GAPDH) mRNA levels). Briefly: TaqMan quantitative RT-PCR of GAPDH mRNA levels in treated versus untreated replicon cells (cytotoxicity measure). Particulars: treated versus untreated cells in the Replicon Assay.
From the text: as §1

The mark [4] stands for this setting: Hepatitis C virus, Huh-7, 48 h, read-out: IC50 HSPI, antiviral compound used individually, HCV replicon RNA accumulation, 48 h, response-surface fit (Ribavirin corrected for cytotoxicity).
The mark [5] stands for this setting: read-out: IC50 HSPI, antiviral compound used individually, HCV replicon RNA accumulation, 48 h, response-surface fit (Ribavirin corrected for cytotoxicity).

In general, IC50 refers to the concentration that inhibits the measured activity by half. Consider `CCC[C@H](NC(=O)[C@@H]1[C@H]2CCC[C@H]2CN1C(=O)[C@@H](NC(=O)[C@@H](NC(=O)c1cnccn1)C1CCCCC1)C(C)(C)C)C(=O)C(=O)NC1CC1` [Compound CU], for which the “Inhibition of replicon RNA accumulation” value is 5% in data set [1] (Compound CU 0.0123 μM alone (interferon-alpha 2B 0 U)); 8% in data set [1] (Compound CU 0.0370 μM alone (interferon-alpha 2B 0 U)); 11% in data set [1] (Compound CU 0.1111 μM alone (interferon-alpha 2B 0 U)); 28% in data set [1] (Compound CU 0.333 μM alone (interferon-alpha 2B 0 U)); 88% in data set [1] (Compound CU 1 μM alone (interferon-alpha 2B 0 U)); 98% in data set [1] (Compound CU 3 μM alone (interferon-alpha 2B 0 U)). Further, the IC50 was 480 nM in data set [1] (Hepatitis C virus, Huh-7, 48 h, Compound CU as single drug treatment, initial experiment, replicon RNA accumulation 48 h); 469 nM in data set [1] (setting [4]); 446 nM and 587 nM and 633 nM and 605 nM and 466 nM in data set [1] (setting [5]). In data set [2] (HCV replicon cells (Huh7)), the CC50 came out at 64700 nM.
For the compound `CCC[C@H](NC(=O)C1[C@H]2CCC[C@H]2CN1C(=O)[C@@H](NC(=O)[C@@H](NC(=O)[C@@H](C)NC(=O)OC)C1CCCCC1)C(C)(C)C)C(=O)C(=O)NC1CC1` (stereo partly shown) [Compound EC], the IC50 in data set [1] (setting [4]) worked out at 384 nM; in data set [1] (setting [5]), 312 nM. Also, the CC50 in data set [2] (HCV replicon cells (Huh7)) was greater than 50000 nM.
Take `CCC[C@@H](NC(=O)[C@@H]1[C@H]2CCCC2CN1C(=O)[C@@H](NC(=O)[C@H](NC(=O)c1cnccn1)C1CCCCC1)[C@H](C)CC)C(=O)C(=O)NC1CC1` (stereo partly shown) [Compound EP]: the IC50 in data set [1] (setting [4]) stood at 426 nM. The compound also came in with a CC50 in data set [2] greater than 10000 nM.
For `NC(=O)c1ncn([C@@H]2O[C@H](CO)[C@@H](O)[C@H]2O)n1` [Ribavirin, reference compound], the “cytotoxicity (GAPDH mRNA levels, TaqMan RT-PCR)” value in data set [3] is listed as “significant Ribavirin-induced cytotoxicity”. The IC50 was 145000 nM in data set [1] (setting [4]) and roughly 80000 nM in data set [1] (Hepatitis C virus, Huh-7, read-out: uncorrected IC50 (Avg. Inh original), not corrected for cytotoxicity). In addition, in data set [1] (compound alone), the “reduction of accumulation of HCV replicon RNA (in words)” value is given as “marginally effective”.
